Source: publication PMC11123931, “The Synergistic Effect of N2 and N7 Modifications on the Inhibitory Efficacy of mRNA Cap Analogues” (Pharmaceuticals, 2024)
Where two headings read alike, the source gives them in different places.

How the values were obtained:
[1] = test system: cap-dependent translation in rabbit reticulocyte lysate (RRL); conditions: cited from earlier work; for times more potent inhibition than the standard dinucleotide m^7GpppG: pure water without DMSO; for IC50: RRL, water solutions without DMSO, previously determined, read-out: IC50^WATER ± SE
[2] = test system: cap-dependent translation; conditions: 1% DMSO solution; cited from earlier work
human eIF4E (heIF4E) = biological target: T1, human eIF4E (heIF4E) (Homo sapiens, UniProt P06730); experiment: Thermal stabilization of heIF4E by differential scanning fluorimetry (DSF); assay type: binding; conditions: 1% DMSO; for Relative Change in Affinity to m^7GMP: DSF appK ratio; for Kd: from ΔTm versus ligand concentration, single site ligand binding model, read-out: appK ± SE (apparent affinity to heIF4E)
T1 construct: The thermal stability of human full-length eIF4E (heIF4E) was analyzed; made in house
T1 sequence (P06730 whole entry): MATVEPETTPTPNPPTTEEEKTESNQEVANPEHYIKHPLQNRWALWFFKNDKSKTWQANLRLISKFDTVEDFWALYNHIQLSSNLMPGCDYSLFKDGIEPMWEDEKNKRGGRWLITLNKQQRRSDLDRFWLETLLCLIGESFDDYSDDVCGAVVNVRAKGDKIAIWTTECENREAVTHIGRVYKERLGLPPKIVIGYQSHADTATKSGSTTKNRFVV
Protocol: The thermal stability of human full-length eIF4E (heIF4E) was analyzed using differential scanning fluorimetry (DSF), similar to that described previously for murine eIF4E [30]. heIF4E was expressed and purified as described earlier. The assay sample (20 μL) contained 5× SYPRO Orange (Sigma Aldrich, St. Louis, MO, USA) and 4 μM of heIF4E (final concentration) in HEPES/KOH with 100 mM KCl, 0.5 mM EDTA, and 1 mM DTT (pH 7.2). The tested compounds, as 10× stocks in 10% DMSO, were added to the final concentration at a range from 1 μM to 200 μM. DMSO at a 1% final concentration was then added to the control reactions without any compounds. […] The melting temperature (Tm) was determined as the minimum of the first negative derivative with the built-in CFX Manager Software (Bio-Rad).

[3] = test system: cap-dependent translation in rabbit reticulocyte lysate (RRL); experiment: Inhibition of cap-dependent translation of ARCA-capped luciferase mRNA in rabbit reticulocyte lysate (RRL); assay type: biochemical; conditions: for Inhibition Relative to m^7GMP IC50^DMSO (m^7GMP)/ IC50^DMSO (Cap Analogue) / Inhibition Relative to m^7GpppG IC50^DMSO (m^7GpppG)/ IC50^DMSO (Cap Analogue): 1% DMSO; for IC50: ARCA-capped luciferase mRNA, 1% DMSO final concentration, read-out: IC50^DMSO ± SE
Protocol: To estimate the ability of the newly synthesized double-modified nucleotides to inhibit cap-dependent translation, the […] translation system from rabbit reticulocytes lysate (RRL) was used according to previously described procedures. This procedure was implemented because it mimics the competition between the cap analogue and the mRNA in the all-natural system. Briefly, experiments were performed in a micrococcal nuclease-treated RRL using an in vitro-transcribed, ARCA-capped, β-globin 5′ UTR containing mRNA encoding firefly luciferase to allow for the determination of protein synthesis by luminometry. […] Initially, the compounds were prepared in an aqueous solution containing 10% DMSO, and inhibition was measured at a final concentration of 1% DMSO. Incubations were conducted at several series of inhibitor concentrations in three independent measurement series (Figure 4).
Stock solutions were subsequently used for serial dilutions (in 10% DMSO). […] Experiments of the inhibition of the cap-dependent translation in rabbit reticulocyte lysate (Flexi RRL System, Promega) were performed as previously described. […] Next, 1.25 μL of the tested compound (as a solution in 10% DMSO) and m2^7,3′OGpppG-capped luciferase mRNA (to a final concentration of 5 ng/μL) was added to the reaction, and the translation mixture (12.5 μL final volume) was incubated for an additional 60 min. As a reference, reactions with DMSO (1.25 μL of 10% solution) were prepared. The reactions were stopped by chilling on ice, and the luciferase activity was determined in a Glomax luminometer (Promega). The IC50 values were obtained by fitting to the experimental data a theoretical curve that describes the extent of inhibition as a function of competitive inhibitor (e.g., cap analogue) concentration.

Solubility in water = assay type: physicochemical
[4] = listed as (4-(diOCH3-bn)-tz-CH2)2bn^7GpppG (4)

Row | Compound | Kd (human eIF4E (heIF4E); DSF) [µM] | Inhibition Relative to m^7GMP IC50^DMSO (m^7GMP)/ IC50^DMSO (Cap Analogue) [3] | Inhibition Relative to m^7GpppG IC50^DMSO (m^7GpppG)/ IC50^DMSO (Cap Analogue) [3] | IC50 [3] [µM] | IC50 [1] [µM] | other results
1 | Nc1nc2c(ncn2[C@@H]2O[C@H](COP(=O)(O)OP(=O)(O)OP(=O)(O)OC[C@H]3O[C@@H](n4c[n+](Cc5ccccc5)c5c(=O)[nH]c(N)nc54)[C@H](O)[C@@H]3O)[C@@H](O)[C@H]2O)c(=O)[nH]1 [bn^7GpppG] |  |  |  |  |  | times more potent inhibition than the standard dinucleotide m^7GpppG [1]: approximately 1.5
2 | Nc1nc2c(c(=O)[nH]1)[n+](Cc1ccccc1)cn2[C@@H]1O[C@H](COP(=O)([O-])O)[C@@H](O)[C@H]1O [compound 1, 7-benzylguanosine monophosphate] |  |  |  |  |  | inhibitory properties compared to m^7GMP (times better) [2]: 1.5
3 | Cn1c[n+]([C@@H]2O[C@H](COP(=O)(O)O)[C@@H](O)[C@H]2O)c2nc(N)[nH]c(=O)c21 [m^7GMP] |  |  |  | 19.2 ± 3.31 | > 50 | 
4 | Cn1c[n+]([C@@H]2O[C@H](COP(=O)([O-])OP(=O)(O)OP(=O)(O)O)[C@@H](O)[C@H]2O)c2nc(N)[nH]c(=O)c21 [m^7GTP] |  |  |  | 1.09 ± 0.14 | 2.3 ± 0.2 | 
5 | Cn1c[n+]([C@@H]2O[C@H](COP(=O)(O)OP(=O)([O-])OP(=O)(O)OC[C@H]3O[C@@H](n4cnc5c(=O)[nH]c(N)nc54)[C@H](O)[C@@H]3O)[C@@H](O)[C@H]2O)c2nc(N)[nH]c(=O)c21 [m^7GpppG] |  |  |  | 4.45 ± 0.61 | 8.6 ± 0.7 | 
6 | (4-(diOCH3-bn)-tz-CH2)^2m^7GpppG |  |  |  |  |  | times more potent inhibition than the standard dinucleotide m^7GpppG [1]: ~6.9

More lines, main results first:

Row | Kd (human eIF4E (heIF4E); DSF) [µM] | Inhibition Relative to m^7GMP IC50^DMSO (m^7GMP)/ IC50^DMSO (Cap Analogue) [3] | Inhibition Relative to m^7GpppG IC50^DMSO (m^7GpppG)/ IC50^DMSO (Cap Analogue) [3] | IC50 [3] [µM] | Compound | IC50 [1] [µM] | other results
7 | 13.3 ± 3.45 | 10.67 | 2.47 | 1.8 ± 0.21 | COc1cccc(OC)c1OCCCn1cc(CNc2nc3c(c(=O)[nH]2)[n+](C)cn3[C@@H]2O[C@H](COP(=O)([O-])O)[C@@H](O)[C@H]2O)nn1 [compound 2, (4-(diOCH3-bn)-tz-CH2)2m^7GMP] | 2 ± 0.1 | Relative Change in Affinity to m^7GMP (human eIF4E (heIF4E)): 1.8
8 | 14.7 ± 1.14 | 7.11 | 1.64 | 2.7 ± 0.3 | COc1cccc(OC)c1OCCCn1cc(CNc2nc3c(c(=O)[nH]2)[n+](Cc2ccccc2)cn3[C@@H]2O[C@H](COP(=O)([O-])O)[C@@H](O)[C@H]2O)nn1 [compound 3] |  | Relative Change in Affinity to m^7GMP (human eIF4E (heIF4E)): 1.7; solubility in water (Solubility in water): only partially soluble in water
9 | 3.58 ± 1.09 | 80.08 | ~18 | 0.24 ± 0.02 | COc1cccc(OC)c1OCCCn1cc(CNc2nc3c(c(=O)[nH]2)[n+](Cc2ccccc2)cn3[C@@H]2O[C@H](COP(=O)(O)OP(=O)([O-])OP(=O)(O)OC[C@H]3O[C@@H](n4cnc5c(=O)[nH]c(N)nc54)[C@H](O)[C@@H]3O)[C@@H](O)[C@H]2O)nn1 [compound 4] |  | Relative Change in Affinity to m^7GMP (human eIF4E (heIF4E); [4]): 6.8; ΔTm of heIF4E (human eIF4E (heIF4E); DSF, below a 10 μM final concentration): ~ 10 °C; Inhibition Relative to m^7GpppG IC50^DMSO (m^7GpppG)/ IC50^DMSO (Cap Analogue) [3, 4]: 18.54
